Test results taken from US10150755B2, “ASK1 inhibitor compounds and uses thereof” (Seal Rock Therapeutics, Inc., priority 2017, dated 2018).
pIC50: −log10 of the molar value.

Target: ASK1 (Homo sapiens (Human), UniProt Q99683)
Experiment: ASK1 Kinase Assay (Promega ASK1 Kinase Enzyme System, ADP-Glo)
Type: biochemical
Details: enzyme 50 nM, ATP 10 μM
Protocol: The ASK1 enzymatic assay was run following Promega ASK1 Kinase Enzyme System (Cat #V3881). The kit provides the protocol, enzymes and all reagents necessary to run an assay. Firstly, the compounds, enzyme, substrate and ATP were diluted in provided assay buffer. The final concentration of the enzyme was 50 nM, substrate (Myelin basic protein) 1 μg/ml and ATP 10 μM. The compound and the enzyme were pre-incubated in a 384 well white solid bottom plate (Greiner, Cat#784075) for 10 minutes. After incubation, the substrate and ATP were added and incubated for further 60 minutes. After 60 minutes, ADP-Glo™ was added and plate was incubated for another 40 minutes. After 40 minutes, Kinase Detection Reagent was added and the plate was incubated for 45 minutes. After 45 minutes, plate was read on Perkin Elmer EnVision using luminescence read (0.5 seconds/well).

Chain of ASK1 (Q99683 649-946 limits assumed): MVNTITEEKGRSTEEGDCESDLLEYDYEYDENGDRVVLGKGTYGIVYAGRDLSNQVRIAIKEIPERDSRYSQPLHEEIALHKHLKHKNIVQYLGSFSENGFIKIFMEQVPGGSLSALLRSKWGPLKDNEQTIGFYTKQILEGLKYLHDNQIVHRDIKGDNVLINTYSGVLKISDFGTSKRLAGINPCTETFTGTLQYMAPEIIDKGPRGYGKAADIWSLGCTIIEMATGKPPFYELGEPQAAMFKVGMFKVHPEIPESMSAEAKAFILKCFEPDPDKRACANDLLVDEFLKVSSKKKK

| SMILES | pIC50 |
| --- | --- |
| CNC(=O)c1ccc2c(c1)CN(c1cccc(-c3nncn3C3CC3)n1)C2=O [Compound 3, 2-(6-(4-cyclopropyl-4H-1,2,4-triazol-3-yl)pyridin-2-yl)-N-methyl-1-oxoisoindoline-5-carboxamide] | > 6.70 |
| O=C1c2ccc(C(=O)n3cccn3)cc2CN1c1cccc(-c2nncn2C2CC2)n1 [Compound 6, 2-(6-(4-cyclopropyl-4H-1,2,4-triazol-3-yl)pyridin-2-yl)-5-(1H-pyrazole-1-carbonyl)isoindolin-1-one] | > 6.70 |
| O=C(NC1CCOCC1)c1ccc2c(c1)CN(c1cccc(-c3nncn3C3CC3)n1)C2=O [Compound 9, 2-(6-(4-cyclopropyl-4H-1,2,4-triazol-3-yl)pyridin-2-yl)-1-oxo-N-(tetrahydro-2H-pyran-4-yl)isoindoline-5-carboxamide] | > 6.70 |
| O=C(c1ccc2c(c1)CN(c1cccc(-c3nncn3C3CC3)n1)C2=O)N1CCCC1 [Compound 18, 2-(6-(4-cyclopropyl-4H-1,2,4-triazol-3-yl)pyridin-2-yl)-5-(pyrrolidine-1-carbonyl)isoindolin-1-one] | > 6.70 |
| O=C(c1ccc2c(c1)CN(c1cccc(-c3nncn3C3CC3)n1)C2=O)N1CCC1 [Compound 19, 5-(azetidine-1-carbonyl)-2-(6-(4-cyclopropyl-4H-1,2,4-triazol-3-yl)pyridin-2-yl)isoindolin-1-one] | > 6.70 |
| O=C(c1ccc2c(c1)CN(c1cccc(-c3nncn3C3CC3)n1)C2=O)N1C[C@H]2CC[C@@H](C1)O2 [Compound 21, 5-((1R,5S)-8-oxa-3-azabicyclo[3.2.1]octane-3-carbonyl)-2-(6-(4-cyclopropyl-4H-1,2,4-triazol-3-yl)pyridin-2-yl)isoindolin-1-one] | > 6.70 |
| CSC1CCN(C(=O)c2ccc3c(c2)CN(c2cccc(-c4nncn4C4CC4)n2)C3=O)CC1 [Compound 25, 2-(6-(4-cyclopropyl-4H-1,2,4-triazol-3-yl)pyridin-2-yl)-5-(4-(methylthio)piperidine-1-carbonyl)isoindolin-1-one] | > 6.70 |
| O=C(c1cc2c(cc1Cl)C(=O)N(c1cccc(-c3nncn3C3CC3)n1)C2)N1CCOCC1 [Compound 26, 6-chloro-2-(6-(4-cyclopropyl-4H-1,2,4-triazol-3-yl)pyridin-2-yl)-5-(morpholine-4-carbonyl)isoindolin-1-one] | > 6.70 |
| Cn1nccc1-c1ccc2c(c1)CN(c1cccc(-c3nncn3C3CC3)n1)C2=O [Compound 29, 2-(6-(4-cyclopropyl-4H-1,2,4-triazol-3-yl)pyridin-2-yl)-5-(1-methyl-1H-pyrazol-5-yl)isoindolin-1-one] | > 6.70 |
| Cn1cnc(-c2ccc3c(c2)CN(c2cccc(-c4nncn4C4CC4)n2)C3=O)c1 [Compound 30, 2-(6-(4-cyclopropyl-4H-1,2,4-triazol-3-yl)pyridin-2-yl)-5-(1-methyl-1H-imidazol-4-yl)isoindolin-1-one] | > 6.70 |
| Nc1ccc2c(c1)CN(c1cccc(-c3nncn3C3CC3)n1)C2=O [Compound 31, 5-amino-2-(6-(4-cyclopropyl-4H-1,2,4-triazol-3-yl)pyridin-2-yl)isoindolin-1-one] | > 6.70 |
| O=C1c2ccc(NC(=O)C3(c4ccccc4)CC3)cc2CN1c1cccc(-c2nncn2C2CC2)n1 [Compound 33, N-(2-(6-(4-Cyclopropyl-4H-1,2,4-triazol-3-yl)pyridin-2-yl)-1-oxoisoindolin-5-yl)-1-phenylcyclopropane-1-carboxamide] | 6.00 to 6.70 |
| CCNc1ccc2c(c1)CN(c1cccc(-c3nncn3C3CC3)n1)C2=O [Compound 35, 2-(6-(4-cyclopropyl-4H-1,2,4-triazol-3-yl)pyridin-2-yl)-5-(ethylamino)isoindolin-1-one] | > 6.70 |
| O=C1c2cc(-n3ccnc3)ccc2CN1c1cccc(-c2nncn2C2CC2)n1 [Compound 37, 2-(6-(4-cyclopropyl-4H-1,2,4-triazol-3-yl)pyridin-2-yl)-6-(1H-imidazol-1-yl)isoindolin-1-one] | > 6.70 |
| O=C1c2cc(-n3cnc4ccccc43)ccc2CN1c1cccc(-c2nncn2C2CC2)n1 [Compound 38, 6-(1H-Benzo[d]imidazol-1-yl)-2-(6-(4-cyclopropyl-4H-1,2,4-triazol-3-yl)pyridin-2-yl)isoindolin-1-one] | > 6.70 |
| Cn1ccc(-c2ccc3c(c2)C(=O)N(c2cccc(-c4nncn4C4CC4)n2)C3)n1 [Compound 39, 2-(6-(4-cyclopropyl-4H-1,2,4-triazol-3-yl)pyridin-2-yl)-6-(1-methyl-1H-pyrazol-3-yl)isoindolin-1-one] | > 6.70 |
| O=C1c2cc(-c3cnn(C4CC4)c3)ccc2CN1c1cccc(-c2nncn2C2CC2)n1 [Compound 47, 6-(1-cyclopropyl-1H-pyrazol-4-yl)-2-(6-(4-cyclopropyl-4H-1,2,4-triazol-3-yl)pyridin-2-yl)isoindolin-1-one] | > 6.70 |
| O=C1c2cc(-c3cnccc3F)ccc2CN1c1cccc(-c2nncn2C2CC2)n1 [Compound 48, 2-(6-(4-cyclopropyl-4H-1,2,4-triazol-3-yl)pyridin-2-yl)-6-(4-fluoropyridin-3-yl)isoindolin-1-one] | > 6.70 |
| O=C1c2cc(-c3ccncc3)ccc2CN1c1cccc(-c2nncn2C2CC2)n1 [Compound 50, 2-(6-(4-cyclopropyl-4H-1,2,4-triazol-3-yl)pyridin-2-yl)-6-(pyridin-4-yl)isoindolin-1-one] | > 6.70 |
| Cc1ncc(-c2ccc3c(c2)C(=O)N(c2cccc(-c4nncn4C4CC4)n2)C3)s1 [Compound 51, 2-(6-(4-cyclopropyl-4H-1,2,4-triazol-3-yl)pyridin-2-yl)-6-(2-methylthiazol-5-yl)isoindolin-1-one] | > 6.70 |
| Cc1ncccc1-c1ccc2c(c1)C(=O)N(c1cccc(-c3nncn3C3CC3)n1)C2 [Compound 52, 2-(6-(4-cyclopropyl-4H-1,2,4-triazol-3-yl)pyridin-2-yl)-6-(2-methylpyridin-3-yl)isoindolin-1-one] | > 6.70 |

Second part, the compound after the results:

| pIC50 | SMILES |
| --- | --- |
| > 6.70 | COCCNC(=O)c1ccc2c(c1)CN(c1cccc(-c3nncn3C3CC3)n1)C2=O [Compound 4, 2-(6-(4-cyclopropyl-4H-1,2,4-triazol-3-yl)pyridin-2-yl)-N-(2-methoxyethyl)-1-oxoisoindoline-5-carboxamide] |
| > 6.70 | O=C(NCCn1ccnc1)c1ccc2c(c1)CN(c1cccc(-c3nncn3C3CC3)n1)C2=O [Compound 5, N-(2-(1H-imidazol-1-yl)ethyl)-2-(6-(4-cyclopropyl-4H-1,2,4-triazol-3-yl)pyridin-2-yl)-1-oxoisoindoline-5-carboxamide] |
| > 6.70 | O=C1CN(C(=O)c2ccc3c(c2)CN(c2cccc(-c4nncn4C4CC4)n2)C3=O)CCN1 [Compound 20, 2-(6-(4-cyclopropyl-4H-1,2,4-triazol-3-yl)pyridin-2-yl)-5-(3-oxopiperazine-1-carbonyl)isoindolin-1-one] |
| > 6.70 | CO[C@@H]1CCN(C(=O)c2ccc3c(c2)CN(c2cccc(-c4nncn4C4CC4)n2)C3=O)C1 [Compound 22, (R)-2-(6-(4-cyclopropyl-4H-1,2,4-triazol-3-yl)pyridin-2-yl)-5-(3-methoxypyrrolidine-1-carbonyl)isoindolin-1-one] |
| > 6.70 | COC(=O)C1CCN(C(=O)c2ccc3c(c2)CN(c2cccc(-c4nncn4C4CC4)n2)C3=O)CC1 [Compound 23, methyl 1-(2-(6-(4-cyclopropyl-4H-1,2,4-triazol-3-yl)pyridin-2-yl)-1-oxoisoindoline-5-carbonyl)piperidine-4-carboxylate] |
| > 6.70 | O=C(c1ccc2c(c1)CN(c1cccc(-c3nncn3C3CC3)n1)C2=O)N1CCSCC1 [Compound 24, 2-(6-(4-cyclopropyl-4H-1,2,4-triazole-3-yl)pyridin-2-yl)-5-(thiomorpholine-4-carbonyl)isoindolin-1-one] |
| > 6.70 | O=C1c2ccc(-c3cc[nH]n3)cc2CN1c1cccc(-c2nncn2C2CC2)n1 [Compound 28, 2-(6-(4-cyclopropyl-4H-1,2,4-triazol-3-yl)pyridin-2-yl)-5-(1H-pyrazol-3-yl)isoindolin-1-one] |
| > 6.70 | Cn1cncc1-c1ccc2c(c1)C(=O)N(c1cccc(-c3nncn3C3CC3)n1)C2 [Compound 36, 2-(6-(4-cyclopropyl-4H-1,2,4-triazol-3-yl)pyridin-2-yl)-6-(1-methyl-1H-imidazol-5-yl)isoindolin-1-one] |
| > 6.70 | Cc1ccc(-c2ccc3c(c2)C(=O)N(c2cccc(-c4nncn4C4CC4)n2)C3)cn1 [Compound 42, 2-(6-(4-cyclopropyl-4H-1,2,4-triazol-3-yl)pyridin-2-yl)-6-(6-methylpyridin-3-yl)isoindolin-1-one] |
| > 6.70 | COc1ccc(-c2ccc3c(c2)C(=O)N(c2cccc(-c4nncn4C4CC4)n2)C3)cn1 [Compound 45, 2-(6-(4-cyclopropyl-4H-1,2,4-triazol-3-yl)pyridin-2-yl)-6-(6-methoxypyridin-3-yl)isoindolin-1-one] |
| > 6.70 | O=C1c2cc(-c3cnccc3Cl)ccc2CN1c1cccc(-c2nncn2C2CC2)n1 [Compound 49, 6-(4-chloropyridin-3-yl)-2-(6-(4-cyclopropyl-4H-1,2,4-triazol-3-yl)pyridin-2-yl)isoindolin-1-one] |
| > 6.70 | O=C1c2cc(-c3cccnc3F)ccc2CN1c1cccc(-c2nncn2C2CC2)n1 [Compound 53, 2-(6-(4-cyclopropyl-4H-1,2,4-triazol-3-yl)pyridin-2-yl)-6-(2-fluoropyridin-3-yl)isoindolin-1-one] |
| > 6.70 | Cc1cncc(-c2ccc3c(c2)C(=O)N(c2cccc(-c4nncn4C4CC4)n2)C3)c1 [Compound 54, 2-(6-(4-cyclopropyl-4H-1,2,4-triazol-3-yl)pyridin-2-yl)-6-(5-methylpyridin-3-yl)isoindolin-1-one] |
